# Measurements from patent publication US12063933B1, “Antimicrobial compositions including copper(I) salts and additives” (CORNING INCORPORATED, priority 2023, dated 2024).
# Test system: Staphylococcus aureus (ATCC 6538)
# Assay: EPA Test antimicrobial efficacy (log kill) of films/coupons
# Type: cell-based
smiles,measurement,value
"CCOP(OCC)OCC.[Cu][I] [CuI(TEP), iodo(triethyl phosphite)copper(I)]",antimicrobial efficacy,essentially full kill
